Laboratory results reported in patent publication US12510533B2, “Methods for treating multiple myeloma and the use of companion biomarkers for 4-(4-(4-(((2-(2,6-dioxopiperidin-3-yl)-1-oxoisoindolin-4-yl)oxy)methyl)benzyl)piperazin-1-yl)-3-fluorobenzonitrile” (Celgene Corporation, priority 2018, dated 2025).
Read-outs that look alike come from different tables or passages of the source.

Columns and labels:
Ikaros = Ikaros (Homo sapiens, UniProt Q13422+Q96SW2); test: Phase 1 study, Ikaros expression by flow cytometry in CD3+ T cells; format: in vivo; parameters: The effects of Compound 2 on the degradation of Ikaros in CD4+ and CD8+ T cells; endogenous in cells; CD34+ bone marrow cells of healthy donors; CD3+ T cells of multiple myeloma patients; settings: QD days 1-10, 15-24/28 and BID days 1-3, 15-17/28; recovered during dosing interruptions
Sequence of Ikaros (Q13422 whole entry): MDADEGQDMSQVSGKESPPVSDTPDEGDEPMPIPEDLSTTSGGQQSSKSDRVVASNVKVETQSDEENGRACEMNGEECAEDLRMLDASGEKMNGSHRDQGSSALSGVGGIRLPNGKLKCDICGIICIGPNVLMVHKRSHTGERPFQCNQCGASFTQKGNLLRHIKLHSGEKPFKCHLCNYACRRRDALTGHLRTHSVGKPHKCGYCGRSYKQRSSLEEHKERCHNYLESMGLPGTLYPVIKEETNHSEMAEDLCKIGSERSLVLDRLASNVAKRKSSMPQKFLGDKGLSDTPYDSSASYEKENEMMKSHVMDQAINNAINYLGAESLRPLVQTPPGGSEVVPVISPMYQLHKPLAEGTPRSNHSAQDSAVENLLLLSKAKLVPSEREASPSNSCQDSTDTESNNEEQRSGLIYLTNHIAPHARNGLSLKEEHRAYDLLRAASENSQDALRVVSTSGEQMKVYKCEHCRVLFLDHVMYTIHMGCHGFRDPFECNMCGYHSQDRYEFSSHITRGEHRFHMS
Sequence of Ikaros (Q16531 2-1140, further chain): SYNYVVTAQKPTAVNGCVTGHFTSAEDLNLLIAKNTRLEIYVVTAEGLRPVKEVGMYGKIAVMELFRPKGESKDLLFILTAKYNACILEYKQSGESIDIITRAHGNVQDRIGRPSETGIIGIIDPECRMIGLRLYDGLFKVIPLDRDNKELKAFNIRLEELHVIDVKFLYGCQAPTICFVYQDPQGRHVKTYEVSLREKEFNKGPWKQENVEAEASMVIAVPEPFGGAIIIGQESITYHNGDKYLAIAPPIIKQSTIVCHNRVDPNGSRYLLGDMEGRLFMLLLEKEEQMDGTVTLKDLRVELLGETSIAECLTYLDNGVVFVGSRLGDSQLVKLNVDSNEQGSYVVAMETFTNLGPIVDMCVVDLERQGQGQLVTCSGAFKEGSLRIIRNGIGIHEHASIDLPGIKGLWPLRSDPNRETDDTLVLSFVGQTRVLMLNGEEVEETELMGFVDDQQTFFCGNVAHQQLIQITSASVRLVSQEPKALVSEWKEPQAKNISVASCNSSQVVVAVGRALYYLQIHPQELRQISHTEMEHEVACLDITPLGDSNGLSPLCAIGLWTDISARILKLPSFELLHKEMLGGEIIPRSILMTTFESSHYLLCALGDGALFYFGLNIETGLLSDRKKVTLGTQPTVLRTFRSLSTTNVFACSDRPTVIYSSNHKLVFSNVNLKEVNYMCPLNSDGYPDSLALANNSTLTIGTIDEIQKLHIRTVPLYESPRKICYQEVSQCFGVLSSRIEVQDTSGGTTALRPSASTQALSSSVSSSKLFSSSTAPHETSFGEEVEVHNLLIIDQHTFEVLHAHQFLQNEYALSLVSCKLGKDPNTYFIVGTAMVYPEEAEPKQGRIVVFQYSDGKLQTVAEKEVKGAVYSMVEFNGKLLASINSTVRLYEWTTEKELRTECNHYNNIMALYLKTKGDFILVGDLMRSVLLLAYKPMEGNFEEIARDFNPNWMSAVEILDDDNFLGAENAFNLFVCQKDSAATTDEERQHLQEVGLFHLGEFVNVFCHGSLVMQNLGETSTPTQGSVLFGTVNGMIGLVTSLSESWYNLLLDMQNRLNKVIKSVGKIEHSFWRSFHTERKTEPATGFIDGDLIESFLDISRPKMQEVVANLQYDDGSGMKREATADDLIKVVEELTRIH
Sequence of Ikaros (Q96SW2 whole entry): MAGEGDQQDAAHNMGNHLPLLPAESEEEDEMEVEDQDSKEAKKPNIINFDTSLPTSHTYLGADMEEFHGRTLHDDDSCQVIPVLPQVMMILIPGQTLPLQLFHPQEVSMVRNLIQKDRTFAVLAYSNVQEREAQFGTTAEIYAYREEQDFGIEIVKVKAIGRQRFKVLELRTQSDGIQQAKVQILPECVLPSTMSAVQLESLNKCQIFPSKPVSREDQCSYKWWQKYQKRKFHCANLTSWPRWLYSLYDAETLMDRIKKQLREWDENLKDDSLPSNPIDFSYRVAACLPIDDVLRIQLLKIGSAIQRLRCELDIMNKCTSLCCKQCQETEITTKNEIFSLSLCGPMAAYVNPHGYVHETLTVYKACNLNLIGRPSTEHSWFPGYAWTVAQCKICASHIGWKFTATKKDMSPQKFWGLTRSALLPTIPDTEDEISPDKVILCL
Method: FIG. 25A and FIG. 25B illustrate that Compound 2 induced Ikaros degradation in CD3+ T cells from peripheral blood of relapsed/refractory multiple myeloma patients after (FIG. 25A) the once daily (QD) 1-10, 15-24/28 schedule, or (FIG. 25B) the twice daily (BID) 1-3, 15-17/28 schedule.
Ikaros expression was measured by flow cytometry in CD3+ T cells before and during Compound 2 treatment in two different dosing schedules (QD administration on days 1 to 10 and days 15 to 24 of a 28 day cycle, and BID administration on days 1 to 3 and days 15 to 17 of a 28 day cycle).

Aiolos = molecular target: T1, Aiolos (Homo sapiens, UniProt Q96SW2+Q9UKT9); test: Aiolos degradation, ePL luminescence assay in DF15 cells expressing ePL-tagged Aiolos; format: cell-based; settings: for DC50: read-out: Degradation of Aiolos IC50, DF15 cells
T1 construct: expressed in transfected cells; host or cells: DF15 multiple myeloma cells
T1 sequence (Q9UKT9 whole entry): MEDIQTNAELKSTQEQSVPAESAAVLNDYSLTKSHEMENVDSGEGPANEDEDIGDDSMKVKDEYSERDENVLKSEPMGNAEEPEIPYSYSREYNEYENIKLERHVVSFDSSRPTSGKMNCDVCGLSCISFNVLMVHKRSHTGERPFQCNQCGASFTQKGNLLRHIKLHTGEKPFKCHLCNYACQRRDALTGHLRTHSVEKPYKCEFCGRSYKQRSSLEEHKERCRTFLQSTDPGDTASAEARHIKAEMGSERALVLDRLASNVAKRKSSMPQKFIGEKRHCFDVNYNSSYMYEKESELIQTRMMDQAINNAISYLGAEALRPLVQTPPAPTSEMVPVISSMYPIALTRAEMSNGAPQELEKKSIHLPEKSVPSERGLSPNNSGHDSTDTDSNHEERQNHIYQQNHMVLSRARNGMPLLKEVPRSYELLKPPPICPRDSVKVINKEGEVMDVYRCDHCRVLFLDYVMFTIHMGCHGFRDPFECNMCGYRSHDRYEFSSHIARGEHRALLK
T1 sequence (Q96SW2 whole entry): as the sequence (Q96SW2 whole entry) above
T1 sequence (Q16531 2-1140, further chain): as the sequence (Q16531 2-1140, further chain) above
Method: FIG. 1 illustrates that Compound 2 and Compound 3 degraded Aiolos protein in a time and concentration dependent manner. DF15 cells expressing Enhanced ProLabel (ePL)-tagged Aiolos were incubated with Compound 2 (triangle) or Compound 3 (square) for 45 minutes, 90 minutes, or 3 hours at the indicated concentrations. Cell extracts were then generated and the amount of Aiolos-ePL protein was determined by ePL luminescence assay.
The relative effectiveness of Compound 2 and Compound 3 to promote the destruction of Aiolos protein by the CRL4^CRBN E3 ubiquitin ligase was investigated in DF15 myeloma cells at different time points (45 minutes, 90 minutes, and 3 hours). DF15 cells expressing Enhanced ProLabel (ePL)-tagged Aiolos were incubated with Compound 2 or Compound 3 for 45 minutes, 90 minutes, or 3 hours. Cell extracts were then generated and the amount of Aiolos ePL protein was determined by ePL luminescence assay. Values shown in Table 1 correspond to data presented in FIG. 1 for Aiolos content vs. concentration.

H929-1051 cells = test: PBMC-induced MM cell lysis, PBMCs and MM cells both pretreated, versus single MM culture (H929-1051); format: cell-based, human; settings: PBMCs and MM cells both preincubated 72 hours
Method: Ninety-six-well dishes were pre-coated with anti-CD3 antibody (OKT3, 3 μg/mL) and incubated at 4° C. overnight before the start of the experiment. Frozen PBMC donor cells were thawed at 37° C. for 2 minutes in RPMI medium with 10% FBS and cell counts and viability were measured on the Vi-CELL analyzer. Peripheral blood mononuclear cells were washed and diluted to 1×10^6 cells/mL and dispensed into the compound-treated plates in a total volume of 200 μL. Cells were incubated with Compound 2 for 2 hours before being transferred onto anti-CD3-coated plates and incubated for an additional 72 hours. At the same time, MM cell lines (NCI-H929, H929-1051, OPM2, OPM2-P10) were diluted to a final concentration of 0.1×10^6 cells/mL and labeled with CellTrace CFSE according to manufacturer's instructions. Multiple myeloma cell lines were then dispensed into compound-treated plates at a total volume of 200 μL and incubated for 72 hours. After 72 hours, the PBMCs and MM cells were counted and transferred into a U-bottom 96-well plate at a final T:E ratio of 1:5. After 24 hours coculture, specific target cell lysis by PBMC mediated apoptosis was measured using Annexin V-AF647 and 7-AAD according to manufacturer's instructions and samples were run on the Attune NxT Cytometer. […]

sFLC = test: Phase 1 study, serum free light chain (sFLC); format: in vivo, human; settings: two subjects; during the first cycle of treatment
Description: This is an open-label, multi-center, international, Phase 1 study to assess the safety, PK/PD and preliminary efficacy of Compound 2 in combination with dexamethasone in subjects with RRMM.
Serum samples were taken before and during Compound 2 treatment at specified time points. Serum free light chain (sFLC) can be used as an efficacy measurement in multiple myeloma. The short half-life of sFLC provides an opportunity to follow the dynamic effect of compound treatment on disease burden. […] The extent of decrease from baseline and duration of the effect may predict response to treatment with Compound 2.

Ikaros and Aiolos = test: Immunoblot of Ikaros and Aiolos in DF15R and DF15R-human CRBN WT cells; format: cell-based; settings: 0.1 μM, 4 hours
Method: Shown are Cereblon, Ikaros, and Aiolos immunoblots of extracts from DF15R and DF15R-human CRBN^WT cells that were incubated with DMSO, pomalidomide, or Compound 2 at 0.1 μM for 4 hours. Tubulin is a loading control.
To determine whether cereblon could serve as a biomarker for predicting response to Compound 2, the myeloma cell line DF15R was treated with Compound 2.

[1] = tested on: relapsed and refractory multiple myeloma; test: Phase 1 study, response to treatment (IMWG criteria); format: in vivo, human; settings: subjects with >80% decrease in sBCMA or sFLC
[2] = tested on: tumor necrosis factor alpha (TNF-α); test: TNF-α production by TCR-activated healthy PBMCs; format: cell-based, human; settings: 24 hours
Method: FIG. 21A-FIG. 21C illustrate that Compound 2 is a potent inducer of effector cytokines. […] (FIG. 21A) IL-2, (FIG. 21B) IFN-γ, and (FIG. 21C) TNF-α. Data shown are an average from three or four donors and are represented as fold change over DMSO control; error bars represent standard error of the mean (SEM).
The immunomodulatory activity of Compound 2 on T cell receptor (TCR)-activated healthy PBMCs was assessed. […] This increased in cytokine secretion was evident as early as 24 hours after introduction of Compound 2 with the peak of the effector cytokine production induced by Compound 2 being 5.5-fold for IL-2, 4.5-fold for interferon gamma (IFN-γ), and 2-fold for tumor necrosis factor alpha (TNF-α) above the vehicle control (FIG. 21A-FIG. 21C, respectively).

N#Cc1ccc(N2CCN(Cc3ccc(COc4cccc5c4CN([C@H]4CCC(=O)NC4=O)C5=O)cc3)CC2)c(F)c1 [Compound 2, (S)-4-(4-(4-(((2-(2,6-dioxopiperidin-3-yl)-1-oxoisoindolin-4-yl)oxy)methyl)benzyl)piperazin-1-yl)-3-fluorobenzonitrile]
Ikaros degradation in CD3+ T cells (Ikaros): dose dependent
manner of Aiolos degradation (Aiolos; 45 minutes, 90 minutes, 3 hours): time-dependent and concentration-dependent
inhibition at 0.001 µM (Aiolos; DF15, read-out: inhibition at 0.001 μM): 27%
DC50 (Aiolos; 45 minutes incubation): > 100 nM
DC50 (Aiolos; 90 minutes incubation): 0.36 nM
DC50 (Aiolos; 3 hours incubation): 0.031 nM
enhancement of killing, IC50 of single MM culture versus immune and tumor cell co-culture (H929-1051 cells): ~6000 fold
decrease in sFLC (sFLC): > 80%
degradation of Ikaros or Aiolos (Ikaros and Aiolos; DF15R cells, no detectable CRBN): did not show any degradation
degradation of Ikaros and Aiolos after reintroduction of CRBN (Ikaros and Aiolos; DF15R-human CRBN WT cells): reactivated
response to treatment [1]: VGPR and PR
peak TNF-α production above the vehicle control [2]: 2 fold
